Entries after “also recorded” stand apart in the source; their conditions may differ.
Columns and labels:
Type in all cases: cell-based, human
[1] = system: BNIP3; experiment: HIF-1 induced gene expression, U251 cells (Table 3), BNIP3; conditions: HRE gccgCACGTGccac, E 100 nM
Procedure: (§1) U251 cells were plated in 24-well plates at a density of 20−30×10^3 cells per well (40−60×10^3 cells/ml) in RPMI (ATCC) supplemented with 5% FBS (Irvine Scientific). After 24 hours, polyamides were added to the adhered cells in cell media solutions at the appropriate concentration and incubated with the cells for 48 hours. […] When appropriate, echinomycin was added two hours prior to DFO stimulation. Isolation of RNA and subsequent cDNA synthesis were as previously described (19). When appropriate, HIF-1α siRNA (HIF-1α validated stealth duplex, Invitrogen) or mismatch control siRNA with similar GC content (Invitrogen) was transfected 48 hours prior to RNA isolation. Transfection of siRNA was achieved using Lipofectamine 2000 (Invitrogen) according to manufacturer's protocols. Quantitative real-time RT-PCR was performed using SYBR Green PCR Master Mix (Applied Biosystems) on an ABI 7300 instrument. Target gene mRNA was measured relative to β-glucuronidase as an endogenous control. Primer employed were: VEGF, L 5′[…]-3′ (SEQ ID NO:22), R 5′-GGGTACTCC TGGAAGATGTCC-3′ (SEQ ID NO:23); β-glucuronidase, L 5′-[…]-3′ (SEQ ID NO:24), R 5′-[…]-3′ (SEQ ID NO:25); FLT1, L 5′-[…]-3′ (SEQ ID NO:26), R 5′-[…]-3′ (SEQ ID NO:27).

[2] = system: TFRC; experiment: HIF-1 induced gene expression, U251 cells (Table 3), TFRC; conditions: HRE agcgTACGTGcctc; R siRNA, E 100 nM, 11.1 and 11.3 1 μM; unit not given
Procedure: as §1

[3] = system: 11 HIF-1 induced genes; experiment: Quantitative real-time RT-PCR confirmation on the set of 11 HIF-1 induced genes, U251 cells; conditions: E 100 nM, polyamides 1 μM
Description: Quantitative real-time RT-PCR was used to confirm the effects of polyamides 11.1, 11.3, echinomycin, and siRNA treatments on these 11 genes. […] Chromatin immunoprecipitation was used to measure HIF-1 occupancy at the HREs of VEGF and carbonic anhydrase IX (CA9), which were both affected by polyamide 11.1, and PGK1, which was unaffected (FIG. 17). HIF-1α occupancy at the VEGF HRE was decreased by HIF-1α siRNA, echinomycin, and polyamide 11.1, but less so by treatment with HRE-mismatch polyamide 11.3.
as §1

[4] = system: HIF-1 occupancy at the carbonic anhydrase IX (CA9) HRE; experiment: Chromatin immunoprecipitation of HIF-1α, U251 cells, CA9 HRE; conditions: DFO-induced, polyamides 1 μM, echinomycin 100 nM
Procedure: (§2) U251 cells were plated in 15 cm diameter plates and left to attach overnight. Media, time course, DFO, polyamide, echinomycin, and siRNA treatments were as described above. After the 16 hour DFO treatment, cells were treated with 1% formaldehyde for 10 minutes. Chromatin was isolated and sheared. HIF-1α antibodies (Novus Biologicals) were used to immunoprecipitate HIF-1-bound DNA fragments. After crosslink reversal, PCRs using primers targeted to the regions of interest were used to assess enrichment of bound fragments as compared to mock-precipitated (no antibody) controls. PCRs were monitored either using SYBR Green PCR Master Mix (Applied Biosystems) on an ABI 7300 instrument, or directly visualized using gel electrophoresis. The following primers were used: VEGF, L 5′-CCTTTGGGTTTTGCCAGA-3′ (SEQ ID NO:28), R 5′-CCAAGTTTGTGGAGCTGA-3′ (SEQ ID NO:29); CA9, L 5′-AAAAGGGCGCTCTGTGAGT-3′ (SEQ ID NO:30), R 5′-GCTGACTGTGGGGTGTCC-3′ (SEQ ID NO:31); PGK1, L 5′-CCCCTAAGTCGGGAAGGTT-3′ (SEQ ID NO:32), R 5′-[…]-3′ (SEQ ID NO:33).

[5] = system: EGLN1; experiment: HIF-1 induced gene expression, U251 cells (Table 3), EGLN1; conditions: HRE ggtgTACGTGcaga, E 100 nM
Procedure: as §1

[6] = system: EDN1; experiment: HIF-1 induced gene expression, U251 cells (Table 3), EDN1; conditions: HRE aggcAACGTGcagc; E 100 nM, 11.1 and 11.3 1 μM
Procedure: as §1

[7] = system: VEGF mRNA; experiment: DFO-induced VEGF mRNA by quantitative real-time RT-PCR, U251 cells; conditions: for HIF-1 induced genes affected: VEGF: HRE tgcaTACGTGggct, E 100 nM, 11.1 and 11.3 1 μM, U251; for Effect on DFO-induced VEGF mRNA (in words) / Effect on induced VEGF expression (in words) / Induction of VEGF mRNA by DFO (in words), FIG. 15a legend: U251 cells; for Effect on DFO-induced VEGF mRNA (in words): 0.2 and 1 μM; for Effect on induced VEGF expression (in words): Example 2, polyamides 1 μM, echinomycin 100 nM; for Induction of VEGF mRNA by DFO (in words), FIG. 15a legend: echinomycin (100 nM), polyamides (10 μM)
Procedure: Cells were plated in 24-well plates at a density of 15-20×10^3 cells per well (30-40×10^3 cells/ml). Polyamides were added to adhered cells in solutions of cell media at the appropriate concentration and allowed to incubate with the cells for 48 h. […] Cells were harvested, RNA isolated, cDNA synthesized and quantitative real-time RT-PCR conducted as described previously (16). Briefly, RNA was isolated using the RNeasy kit (Qiagen), cDNA synthesized using Powerscript (BD Biosciences) and quantitative real-time RT-PCR performed using SYBR Green PCR Master Mix (Applied Biosystems) on an ABI 7300 instrument. VEGF expression was measured relative to β-glucuronidase (GUSB) as an endogenous control. Statistical analyses of results were determined using three independent biological replicates. The primer sequences used for VEGF and GUSB are available upon request. HeLa cells were purchased from ATCC and U251 cells were received as a gift from Dr Giovanni Melillo of the National Cancer Institute.
as §1

[8] = system: CA9; experiment: HIF-1 induced gene expression, U251 cells (Table 3), CA9; conditions: HRE gctgTACGTGcatt; E 100 nM, 11.1 and 11.3 1 μM
Procedure: as §1

[9] = system: HIF-1 occupancy at the PGK1 HRE; experiment: Chromatin immunoprecipitation of HIF-1α, U251 cells, PGK1 HRE; conditions: DFO-induced, polyamides 1 μM, echinomycin 100 nM
Procedure: as §2

[10] = system: PKFB3; experiment: HIF-1 induced gene expression, U251 cells (Table 3), PKFB3; conditions: HREs gcggGACGTGacgc, gacgCACGTGggca; E 100 nM, 11.1 and 11.3 1 μM
Procedure: as §1

SMILES	HIF-1 induced genes affected: BNIP3 ([1]; 11.1 and 11.3 1 μM)	HIF-1 induced genes affected: TFRC [2]	Genes of the set of 11 HIF-1 induced genes affected (quantitative real-time RT-PCR) [3]	HIF-1 occupancy at the carbonic anhydrase IX locus (chromatin immunoprecipitation) [4]	HIF-1 induced genes affected: EGLN1 ([5]; 11.1 and 11.3 1 μM)	HIF-1 induced genes affected: EDN1 [6]	HIF-1 induced genes affected: VEGF [7]	Effect on DFO-induced VEGF mRNA (in words) [7]	Effect on induced VEGF expression (in words) [7]	Induction of VEGF mRNA by DFO (in words), FIG. 15a legend [7]	HIF-1 induced genes affected: CA9 [8]	HIF-1 occupancy at PGK1 (chromatin immunoprecipitation) [9]	HIF-1 induced genes affected: PKFB3 [10]	Effect on induced VEGF expression (in words) ([7]; listed as 11.3)	HIF-1 induced genes affected: BNIP3 [1]	HIF-1 induced genes affected: EGLN1 [5]
CN(CCCNC(=O)c1cccc(C(=O)O)c1)CCCNC(=O)c1cc(NC(=O)c2cc(NC(=O)c3nc(NC(=O)c4cc(NC(=O)[C@H](N)CCNC(=O)c5nc(NC(=O)c6cc(NC(=O)c7cc(NC(=O)c8sccc8Cl)cn7C)cn6C)cn5C)cn4C)cn3C)cn2C)cn1C [Polyamide 11]	1.3	1.1	4	decreased	1.1	-2.5	-2.0	inhibited dose dependently; also recorded: dose-dependent inhibition of VEGF	inhibited most of the increase in VEGF mRNA following DFO treatment	decrease VEGF mRNA levels to near non-induced levels	-2.1	minimally affected	1.0			
CN(CCCNC(=O)c1cccc(C(=O)O)c1)CCCNC(=O)c1cc(NC(=O)c2cc(NC(=O)c3cc(NC(=O)c4nc(NC(=O)[C@H](N)CCNC(=O)c5cc(NC(=O)c6cc(NC(=O)c7nc(NC(=O)c8nccn8C)cn7C)cn6C)cn5C)cn4C)cn3C)cn2C)cn1C [Polyamide 23]	1.0	1.4	little effect on the expression of all the others	unaffected	1.0	1.3	-1.3	more modest effect than its match congener 11; also recorded: modest activity at both concentrations		more modest effect	-1.1	minimally affected	1.0	more modest effect on VEGF mRNA levels; also recorded: modest but measurable effect on VEGF expression		
CS[C@H]1SC[C@H]2C(=O)N(C)[C@@H](C(C)C)C(=O)OC[C@@H](NC(=O)c3cnc4ccccc4n3)C(=O)N[C@@H](C)C(=O)N(C)[C@@H]1C(=O)N(C)[C@@H](C(C)C)C(=O)OC[C@@H](NC(=O)c1cnc3ccccc3n1)C(=O)N[C@@H](C)C(=O)N2C [echinomycin, reference compound]		−2.3	reduced expression of all genes in this set	decreased		-31.0	-34.0		potently inhibits VEGF expression to levels below the non-induced control	potently inhibits VEGF mRNA to below non-induced levels	-9.4	did not appear to affect HIF-1 occupancy at this locus	−82.0		−6.0	−19.8

— US7935530B2, “Polyamides with tail structures capable of binding DNA” (California Institute of Technology, priority 2006, dated 2011)
